Data as given in patent publication US20080015189A1, “Antimicrobial photoinactivation using chalcogen analogs of benzo(A)phenoxazinium dyes” (The General Hospital Corporation, priority 2006, published 2008).

What was measured:
[1] = Partition coefficient between 2-octanol and pH 7.4 buffered saline; format: physicochemical; settings: for LogP, partition coefficient: pH 7.4
Description: (§1) The relative photoactivities of the three photosensitizers studied herein were gauged by their abilities to generate singlet oxygen (^1O2) when illuminated with a beam of red light having an adjusted intensity such that each dye absorbed the same number of photons per unit time. […] Finally, because of the relevance of lipophilicity to the present studies, the partition coefficients for the PS between 2-octanol and phosphate-buffered saline (pH=7.4) are listed^18.

[2] = system: Candida albicans (ATCC 18804); assay: Photodynamic inactivation of C. albicans (survival fraction by CFU after red light); format: cell-based; settings: 20 μM dye, wash
Description: (§2) The microorganisms studied were Escherichia coli (ATCC 25922), Enterococcus faecalis (ATCC 29212), and Candida albicans (ATCC 18804). The microorganism species chosen to evaluate the photoactivities of the dyes in the present study are important pathogens in the type of infections, such as wounds and burns, likely to be amenable to photodynamic therapy (PDT). E. faecalis is typical of Enterococci that frequently develop vancomycin resistance and are important nocosomial pathogens in post-surgical wounds and burns.^42 Although E. coli is generally thought of as an intestinal or urinary tract pathogen, there is increasing concern about its presence in wound infections and its ability to develop extended spectrum beta-lactamase resistance.^43,44 C. albicans is increasingly found in nocosomial infections in burns^45 and, to a lesser extent, in surgical wounds.^46
Cells were grown at 37° C. in aerobic conditions in a shaker at 150 rpm. […] C. albicans was grown for approximately 4 h to approximate density of 10^7 cells/mL corresponding to an OD of 6 at 650 nm (ten fold dilution measured). […]
Suspensions of microorganisms were incubated for 10 minutes with photosensitizer in the dark at room temperature. […] The fluorescence of dissolved pellets was measured on a spectrofluorimeter (FluoroMax3, SPEX Industries, Edison, N.J.). For EtNBA (1), the excitation wavelength was 625 nm, and the emission spectra of the solution were recorded from 630 to 750 nm. […] For EtNBSe (3), the excitation wavelength was 655 nm, and the emission was recorded in the range from 660 to 750 nm. The fluorescence was calculated from the height of the peaks recorded. […] Uptake values were obtained by dividing the number of nmol of sensitizer in the dissolved pellet by the number of colony-forming units (CFU) obtained by serial dilutions and the number of photosensitizer molecules/cell calculated using Avogadro's number.
(§3) Illumination was performed either after or before excess dye was washed out. […] Exact power was measured with a laser power meter (model FM/GS, Coherent, Santa Clara, Calif.).

[3] = system: Escherichia coli (ATCC 25922); assay: Photodynamic inactivation of E. coli (survival fraction by CFU after red light); format: cell-based; settings: 5 μM dye
Description: as §2
(§4) Cells were grown at 37° C. in aerobic conditions in a shaker at 150 rpm. Brain-heart infusion broth (Difco, BD Diagnostic Systems, Sparks, Md.) was used for E. coli and E. faecalis, YM medium (Difco) was used for C. albicans. Exponential cultures obtained by reculturing stationary overnight precultures were used for all experiments. E. coli and E. faecalis were grown in fresh medium for approximately 1 h to a density of 10^8 cells/mL; the OD values at 650 nm were 0.6. C. albicans was grown for approximately 4 h to approximate density of 10^7 cells/mL corresponding to an OD of 6 at 650 nm (ten fold dilution measured). Exact cell numbers were confirmed by counting colony forming units obtained after serial dilution on square BHI (or YM for Candida) agar plates.
(§5) Stock solutions (2 mM) of the three chalcogen dyes were prepared in water and stored at 4° C. in the dark for no longer than 1 month before use. A non-coherent light source with interchangeable fiber bundles (LumaCare, London, UK) was employed. Thirty-nm band pass filters allowed total powers of roughly 1 W to be obtained from 630+/−15 nm for EtNBA (1), 652+/−15 nm for EtNBS (2), and 660+/−15 nm for EtNBSe (3).
Suspensions of microorganisms were incubated for 10 minutes with photosensitizer in the dark at room temperature. Unbound photosensitizer was washed out by centrifugation of the mixture of dye and microorganisms for 6 minutes at 1550g, followed by resuspension of washed pellets in 10 mL PBS without Ca^++/Mg^++. Aliquots (200 μL) of these suspensions were used for photodynamic inactivation (PDI) experiments; the remaining suspensions were centrifuged again, and the pellets were dissolved in 3 mL 10% SDS for at least 24 hours. These suspensions were used for photosensitizer uptake measurement. The fluorescence of dissolved pellets was measured on a spectrofluorimeter (FluoroMax3, SPEX Industries, Edison, N.J.). For EtNBA (1), the excitation wavelength was 625 nm, and the emission spectra of the solution were recorded from 630 to 750 nm. […] For EtNBSe (3), the excitation wavelength was 655 nm, and the emission was recorded in the range from 660 to 750 nm. The fluorescence was calculated from the height of the peaks recorded. […] Uptake values were obtained by dividing the number of nmol of sensitizer in the dissolved pellet by the number of colony-forming units (CFU) obtained by serial dilutions and the number of photosensitizer molecules/cell calculated using Avogadro's number.
as §3

[4] = system: Enterococcus faecalis (ATCC 29212); assay: Dye uptake and binding by microbial cells, E. faecalis (fluorescence of SDS-dissolved pellets); format: cell-based; settings: 2 μM dye; for cell uptake (molecules per cell), rank order: 10 minute incubation, wash
Procedure: (§6) Suspensions of microorganisms were incubated for 10 minutes with photosensitizer in the dark at room temperature. Unbound photosensitizer was washed out by centrifugation of the mixture of dye and microorganisms for 6 minutes at 1550g, followed by resuspension of washed pellets in 10 mL PBS without Ca^++/Mg^++. Aliquots (200 μL) of these suspensions were used for photodynamic inactivation (PDI) experiments; the remaining suspensions were centrifuged again, and the pellets were dissolved in 3 mL 10% SDS for at least 24 hours. These suspensions were used for photosensitizer uptake measurement. The fluorescence of dissolved pellets was measured on a spectrofluorimeter (FluoroMax3, SPEX Industries, Edison, N.J.). For EtNBA (1), the excitation wavelength was 625 nm, and the emission spectra of the solution were recorded from 630 to 750 nm. For EtNBS (2), the excitation wavelength was 645 nm, and the range for emission was 650 to 750nm. For EtNBSe (3), the excitation wavelength was 655 nm, and the emission was recorded in the range from 660 to 750 nm. The fluorescence was calculated from the height of the peaks recorded. Calibration curves were made from pure photosensitizer dissolved in 10% SDS and used for determination of sensitizer concentration in the suspension. Uptake values were obtained by dividing the number of nmol of sensitizer in the dissolved pellet by the number of colony-forming units (CFU) obtained by serial dilutions and the number of photosensitizer molecules/cell calculated using Avogadro's number.
(§7) In order to do so, the uptake of dye was measured in terms of molecules per cell by carrying out 10 minute incubations with the same concentration of dyes that was used for photoinactivation, followed by a wash to remove residual incubating solution.
(§8) The bacterial pellets resulting from the incubation with photosensitizer were dissolved in 10% SDS to give a homogeneous solution, and comparison of the resulting fluorescence intensities with a calibration curve prepared with known concentrations of dye in the same solvent yielded the amount of dye in the pellet. […] For the fungus C. albicans, an even higher concentration of dye (20 μM) was used, because the eukaryotic cells are ten times bigger than the prokaryotic bacterial cells.

[5] = in vivo; cited from earlier work
[6] = Quantum yield of singlet oxygen formation (1,3-diphenylisobenzofuran bleaching); format: physicochemical; settings: 1,3-diphenylisobenzofuran method, relative to Methylene Blue, 25° C.
Description: All solvents were reagent grade and used as received.
as §1

[7] = system: Enterococcus faecalis (ATCC 29212); assay: Photodynamic inactivation of E. faecalis (survival fraction by CFU after red light); format: cell-based; settings: 2 μM dye
Description: as §2, §4, §5, §6
Illumination was performed either after or before excess dye was washed out. Aliquots of 200 μL of cell suspension were placed in 96-well plates and illuminated with appropriate light at room temperature. Fluences ranged from 0 to 80 Jcm^−2 at an irradiance of 60-100 mWcm^−2. Exact power was measured with a laser power meter (model FM/GS, Coherent, Santa Clara, Calif.).

[8] = Absorption and fluorescence spectra, fluorescence quantum yield; settings: for λfl(nm), fluorescence maximum: in ethanol; for λabs(nm), absorption maximum: in ethanol containing 0.1% acetic acid; for Φfl, absolute fluorescence quantum yield: relative to Cresyl Violet standard at 25° C.
Procedure: UV/visible absorption spectra were recorded using an HP 8453 spectrophotometer. Corrected fluorescence spectra were recorded using a SPEX Fluorolog2 (solvent measurements) or a FluoroMax3 (microorganism measurements), SPEX Industries, Edison, N.J. Fluorescence quantum yields were measured relative to Cresyl Violet standard at 25° C.^32 Quantum yields for ^1O2 formation were determined by measuring the ^1O2-mediated bleaching of 1,3-diphenylisobenzofuran^12 relative to Methylene Blue (0.50)^33 at 25° C. ^1H NMR spectra were obtained using a Varian 400 MHz spectrometer with TMS as internal standard.

[9] = system: Escherichia coli (ATCC 25922); assay: Dye uptake and binding by microbial cells, E. coli (fluorescence of SDS-dissolved pellets); format: cell-based; settings: 5 μM dye; for cell uptake (molecules per cell), rank order: 10 minute incubation, wash
Procedure: as §6, §7, §8

[10] = system: Candida albicans (ATCC 18804); assay: Dye uptake and binding by microbial cells, C. albicans (fluorescence of SDS-dissolved pellets); format: cell-based; settings: 20 μM dye
Procedure: as §6, §7, §8

[11] = reference standard value, 25° C.; cited from earlier work

Molecule	LogP, partition coefficient [1]	cell uptake (molecules per cell), rank order [4]	toxicity in the dark [5]	1O2, absolute quantum yield for singlet oxygen formation [6]	comparison of killing curves with and without a wash [7]	λfl(nm), fluorescence maximum [8]	λabs(nm), absorption maximum [8]	Φfl, absolute fluorescence quantum yield [8]	fraction of total dye added that was bound to the cells [9]	cell uptake (molecules per cell), rank order [9]	fraction of total dye added that was bound to the cells [10]	other results
5-ethylamino-9-diethylaminobenzo[a]phenothiazinium [Dye 2]	2.76	EtNBSe (3)>EtNBS (2)>EtNBA (1)	little or no toxicity in the dark	0.03	the two curves are almost identical	693 nm	654 nm	0.21	approximately 75%	EtNBSe (3)>EtNBS (2)>EtNBA (1)	essentially quantitative	killing of cells ([2]; 64 J/cm^2): > 98%; killing of cells ([3]; wash, 64 J/cm^2): more than 99%; killing of cells ([7]; wash, 64 J/cm^2 of 652-nm light): > 99.9%
CCNc1cc2[o+]c3cc(N(CC)CC)ccc3nc2c2ccccc12 [Dye 1, 5-Ethylamino-9-diethylaminobenzo[a]phenoxazinium]	2.69	EtNBSe (3)>EtNBS (2)>EtNBA (1)	little or no toxicity in the dark	0.003		660 nm	632 nm	0.27		EtNBSe (3)>EtNBS (2)>EtNBA (1)	approximately 75%	killing of cells ([2]; 80 J/cm^2): > 97%; killing of cells ([3]; wash, 80 J/cm^2): 90%; killing of cells ([7]; wash, 80 J/cm^2 of 635-nm light): 95%; cell uptake (molecules per cell), comparison with EtNBSe (3) ([10]; 10 minute incubation, wash): significantly lower
CCN=c1cc2[se]c3cc(N(CC)CC)ccc3nc-2c2ccccc12 [Dye 3, 5-Ethylamino-9-diethylaminobenzo[a]phenoselenazinium chloride]		EtNBSe (3)>EtNBS (2)>EtNBA (1)		0.78	no significant difference in the two killing curves	703 nm	661 nm	0.03	essentially quantitative	EtNBSe (3)>EtNBS (2)>EtNBA (1)	essentially quantitative	logP ([1]; between 2-octanol and pH 7.4 buffered saline): 2.08; killing of cells ([2]; 4 J/cm^2): more than 99%; comparison of killing curves with and without a wash [3]: bacteria washed free of incubating solution were actually killed slightly (but not significantly) more than those of the non-wash group; killing of cells ([3]; wash, 32 J/cm^2): > 99.9999%; killing of cells (logs) ([3]; wash, 32 J/cm^2): > 6 logs; fraction of total dye added that was bound to the cells [4]: approximately 75%; killing of cells ([7]; wash, 8 J/cm^2 of 660-nm light): > 99.999%; killing of cells (logs) ([7]; wash, 8 J/cm^2 of 660-nm light): 5.5 logs
CN(C)c1ccc2nc3ccc(=[N+](C)C)cc-3sc2c1 [Methylene Blue]												quantum yield for 1O2 formation of the standard [11]: 0.50
